Laboratory results from ChEMBL document CHEMBL5149996, “Structure-Based Optimization and Discovery of M3258, a Specific Inhibitor of the Immunoproteasome Subunit LMP7 (β5i)” (J Med Chem, 2021).
Active and inactive are the calls of the source. The rule behind the calls is not given here.

Experiments:
[1] = Half life in iv dosed mouse; assay type: ADME, organism-based; conditions: in vivo
[2] = Distribution coefficient, log D of the compound; assay type: physicochemical; conditions: octanol/water
U-266 [3] = assay: In vivo inhibition of LMP7 activity in tumor lysates of H2d Rag2 mouse xenografted with human U266B1 cells at 0.3 mg/kg, po administered once daily using (Ac-ANW)2R110 as substrate measured at 1 to 6 hrs post-last drug dosage by fluorescence intensity assay; assay type: functional, organism-based; conditions: Neoplasm, time 1-6 hrs
[4] = Toxicity in H2d Rag2 mouse xenografted with human U266B1 cells assessed as change in body weight at 0.3 to 1 mg/kg, po administered once daily and measured for 21 days; assay type: organism-based, U-266; conditions: in vivo, 504 h, dose 0.3-1 mg/kg, time 21 day
Homo sapiens = species on record: Homo sapiens; assay: Selectivity ratio of IC50 for inhibition of human 20S proteasome beta5 subunit to IC50 for inhibition of human 20S immunoproteasome beta-5i subunit
U-266 [5] = assay: Antitumor activity against human U266B1 cells xenografted in H2d Rag2 mouse assessed as reduction in tumor volume at 1 mg/kg, po administered once daily and measured for 21 days; assay type: functional, organism-based; conditions: time 21.0 day
[6] = Cytotoxicity against Wistar Han rat hepatocytes assessed as depletion of ATP content incubated for 48 to 72 hrs by CellTiter-Glo luminescent assay; assay type: toxicity, cell-based, Hepatocyte
[7] = test system: 20S immunoproteasome beta-5i subunit; assay: Selectivity ratio of IC50 for cytotoxicity against human HepG2 cells to IC50 for inhibition of 20S immunoproteasome beta-5i subunit in human PBMC; assay type: toxicity, cell-based; conditions: read-out: Ratio IC50
[8] = target: T1, Proteasome subunit beta type-9 (Homo sapiens, UniProt P28065); assay: Inhibition of human 20S immunoproteasome beta-1i subunit using (Ac-PAL)2R110 as substrate preincubated for 2 hrs followed by substrate addition and measured after 1 hr by fluorescence intensity assay
T1 sequence (P28065 whole entry): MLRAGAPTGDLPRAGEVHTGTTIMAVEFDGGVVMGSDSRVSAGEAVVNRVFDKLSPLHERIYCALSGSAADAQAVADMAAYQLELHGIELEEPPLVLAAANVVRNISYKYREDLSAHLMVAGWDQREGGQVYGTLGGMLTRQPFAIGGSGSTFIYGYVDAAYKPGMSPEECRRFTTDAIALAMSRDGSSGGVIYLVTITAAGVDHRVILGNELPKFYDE

U-266 [9] = assay: Antitumor activity against human U266B1 cells xenografted in H2d Rag2 mouse assessed as reduction in tumor volume at 0.3 mg/kg, po administered once daily and measured for 21 days; assay type: functional, organism-based; conditions: time 21.0 day
[10] = target: T2, Proteasome Macropain subunit MB1 (Homo sapiens, UniProt P28074); assay: Inhibition of human 20S proteasome beta5 subunit using Suc-LLVY-AMC as substrate preincubated for 2 hrs followed by substrate addition and measured after 1 hr by fluorescence intensity assay
T2 sequence (P28074 whole entry): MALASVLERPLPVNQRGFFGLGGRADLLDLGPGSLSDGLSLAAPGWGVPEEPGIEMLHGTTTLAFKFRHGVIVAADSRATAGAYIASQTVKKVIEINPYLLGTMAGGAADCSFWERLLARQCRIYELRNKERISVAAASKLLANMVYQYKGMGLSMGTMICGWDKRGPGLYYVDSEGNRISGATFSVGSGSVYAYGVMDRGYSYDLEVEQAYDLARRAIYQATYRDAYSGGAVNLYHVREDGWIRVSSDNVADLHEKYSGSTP

[11] = target: T3, Proteasome subunit beta type-8 (Homo sapiens, UniProt P28062); assay: Inhibition of human 20S immunoproteasome beta-5i subunit using Suc-LLVY-AMC as substrate preincubated for 2 hrs followed by substrate addition and measured after 1 hr by fluorescence intensity assay
T3 sequence (P28062 whole entry): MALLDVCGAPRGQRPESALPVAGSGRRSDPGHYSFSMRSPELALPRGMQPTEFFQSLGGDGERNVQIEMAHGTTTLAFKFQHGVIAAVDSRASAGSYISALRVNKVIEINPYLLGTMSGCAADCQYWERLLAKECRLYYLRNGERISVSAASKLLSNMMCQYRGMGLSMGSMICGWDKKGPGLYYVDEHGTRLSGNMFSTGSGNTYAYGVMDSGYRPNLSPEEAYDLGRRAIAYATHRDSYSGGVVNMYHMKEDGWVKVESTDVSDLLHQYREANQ

[12] = target: T4, Proteasome subunit beta type-7 (Homo sapiens, UniProt Q99436); assay: Inhibition of human 20S proteasome beta2 subunit using Ac-RLR-AMC as substrate preincubated for 2 hrs followed by substrate addition and measured after 1 hr by fluorescence intensity assay
T4 sequence (Q99436 whole entry): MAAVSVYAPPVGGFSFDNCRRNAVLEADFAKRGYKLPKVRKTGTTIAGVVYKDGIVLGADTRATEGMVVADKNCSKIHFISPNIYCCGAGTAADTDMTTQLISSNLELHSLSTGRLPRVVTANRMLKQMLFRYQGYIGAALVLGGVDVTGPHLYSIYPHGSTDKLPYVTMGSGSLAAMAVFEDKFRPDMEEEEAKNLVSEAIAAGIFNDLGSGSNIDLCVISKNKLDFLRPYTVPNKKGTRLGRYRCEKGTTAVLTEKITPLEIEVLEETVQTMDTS

[13] = Cytotoxicity against human HepG2 cells assessed as depletion of ATP content incubated for 48 to 72 hrs by CellTiter-Glo luminescent assay; assay type: toxicity, cell-based
[14] = target: 5-hydroxytryptamine receptor 2A (Homo sapiens) (UniProt P28223); assay: Displacement of [125I](+/-)DOI from human recombinant 5HT2A receptor at 10 uM incubated for 60 mins by radiometric scintillation counting analysis
[15] = target: T2, Proteasome Macropain subunit MB1; assay: Inhibition of 20S proteasome beta5 subunit in human A549 cells using Suc-LLVY-luciferin substrate preincubated for 2 hrs followed by substrate addition and measured after 30 mins by luminometric analysis; assay type: cell-based
[16] = Cytotoxicity against human primary hepatocytes assessed as depletion of ATP content incubated for 48 to 72 hrs by CellTiter-Glo luminescent assay; assay type: toxicity, cell-based, Hepatocyte
[17] = Kinetic solubility of the compound; assay type: physicochemical; conditions: read-out: Kinetic_solubility
[18] = target: T3, Proteasome subunit beta type-8; assay: Inhibition of 20S immunoproteasome beta-5i subunit in human PBMC using Ac-ANW-luciferin substrate preincubated for 2 hrs followed by substrate addition and measured after 30 mins by luminometric analysis; assay type: cell-based
[19] = Clearance in iv dosed mouse; assay type: ADME, organism-based; conditions: in vivo
[20] = Clearance in mouse hepatocytes measured per million of cells; assay type: ADME, cell-based, Hepatocyte; conditions: read-out: CLH
[21] = Intrinsic clearance in mouse liver microsomes measured per mg protein; assay type: ADME, Microsome; conditions: read-out: CLH
[22] = Oral bioavailability in mouse at 10 mg/kg; assay type: ADME, organism-based; conditions: in vivo
[23] = Intrinsic clearance in human liver microsomes measured per mg protein; assay type: ADME, Microsome

Chain of 5-hydroxytryptamine receptor 2A (Homo sapiens) (P28223 whole entry): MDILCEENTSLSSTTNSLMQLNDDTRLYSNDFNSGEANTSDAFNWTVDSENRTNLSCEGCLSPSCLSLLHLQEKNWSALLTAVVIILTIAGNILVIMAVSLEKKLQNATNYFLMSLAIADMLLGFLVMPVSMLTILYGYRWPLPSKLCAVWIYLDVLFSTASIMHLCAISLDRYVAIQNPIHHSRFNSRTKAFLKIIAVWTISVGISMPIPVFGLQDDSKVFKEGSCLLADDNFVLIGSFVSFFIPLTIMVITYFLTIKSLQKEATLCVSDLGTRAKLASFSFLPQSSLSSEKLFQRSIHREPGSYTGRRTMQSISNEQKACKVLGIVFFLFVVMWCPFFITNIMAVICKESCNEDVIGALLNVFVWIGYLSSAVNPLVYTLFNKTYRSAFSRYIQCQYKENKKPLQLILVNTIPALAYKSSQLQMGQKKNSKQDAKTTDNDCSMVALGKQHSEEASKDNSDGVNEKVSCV

O=C(N[C@@H](Cc1coc2ccccc12)B(O)O)[C@@H]1C[C@H]2CC[C@@H]1O2
half-life [1]: 1.71 h
logD [2]: 1.1
inhibition (U-266 [3]): Active
Activity [4]: Non-Toxic
Ratio IC50 (Homo sapiens): 684
Activity (U-266 [5]): Active
IC50 [6]: 64 µM
selectivity ratio [7]: 10000
IC50 [8]: > 30 µM
Activity (U-266 [9]): Active
IC50 [10]: 2.5 µM
IC50 [11]: 0.0036 µM
IC50 [12]: > 30 µM
IC50 [13]: 48 µM
inhibition [14]: Active
IC50 [15]: 1.03 µM
IC50 [16]: 91 µM
solubility kinetic [17]: > 200 µM
IC50 [18]: 0.0034 µM
clearance [19]: 3.17 mL/min/kg
hepatocyte CLint [20]: 15 µL/min/1e6 cells
microsomal CLint [21]: 14 µL/min/mg
bioavailability [22]: 35%
CLH [23]: < 10 µL/min/mg
